Laboratory results reported in patent publication US20230065371A1, “PROCESS FOR MANUFACTURING SOLID NEUTRAL AMINO ACID SALTS OF POLYUNSATURATED FATTY ACIDS” (SILICYCLE INC., priority 2020, published 2023).

Assay: Oxidative status / stability (PV, AV, Totox; CDR FoodLab Junior analyzer), storage with closed lids at room temperature
Type: physicochemical
Settings: for TOTOX: Totox=2*PV+AV
Method: The final product in powder form is isolated by evaporating said first and second organic solvents and water from the reaction mixture to recover said basic amino acid salts of PUFAs. Preferably, said evaporation step is carried under reduced pressure between about 0° C.-70° C. depending on the properties of the equipment used. The oxidative status of the obtained final product described herein is quantified by peroxide value (PV), anisidine value (AV) and Totox value. PV is a measure of the level of the primary oxidation products (lipid hydroperoxides) in the product, which is specified in milliequivalents O2 per kg of sample, while the AV is an unspecific measure of saturated and unsaturated carbonyl compounds. Totox is calculated by the equation Totox=2*PV+AV.
The comparison of oxidative status of amino acid salts of omega-3, starting material in ester form and fish oil in free acid form are assessed by measuring the PV and AV, then all the samples are subjected to the same oxidizing condition over a certain period of time, followed by the measuring PV and AV of the samples. The oxidizing conditions are selected from one of them as below: 1) Storage in closed containers at atmospheric condition for 7 months; or 2) Storage in loose closed containers exposed to air at 40° C. for 1 month.
Food Lab Analyzer: Among several techniques known in the art for determining the oxidative levels of a sample. The CDR FoodLab® Junior analyzer is used herein for determining PV and AV. The procedures are as described below:
The solid product 0.5 g was dissolved in 2 ml of MeOH and HCl solution with the ratio of 1:10 (v/v). The mixture was stirred for 5 minutes, followed by the addition of 5 ml of water. The mixture was extracted with 3 ml of hexane containing 100 ppm butylhydroxytoluene (BHT). The organic layer was dried over MgSO4, filtrated and evaporated under reduced pressure at the temperature of 0-70° C. to get the fish oil in free acid form, which is evaluated with the CDR FoodLab® Junior analyzer to get anisidine and peroxide values using the CDR FoodLab® Junior analyzer.
The molar ratio of EPA, NaOH and glycine was 1:1:1. The mixture was stirred at atmospheric condition (i.e. atmospheric pressure and room temperature) for 5 minutes to obtain a suspension solution. 100 mL of acetonitrile was added to further precipitate the glycine salt. […] About 8 g of EPA-gly was stored in a 20 ml of clear vial with a diameter of 27 mm, which was placed with closed lids on the bench at room temperature for the stability examination for 60 days.

[1] = Table 1, time 60 d, closed lids, room temperature
[2] = salt as generated, after roughing pump for 1 day

Row | SMILES | AV (Table 1, time 1 d) | PV (Table 1, time 1 d) | TOTOX (Table 1, time 1 d) | AV [1] | PV [1] | TOTOX [1] | AV [2] | PV [2]
1 | CC/C=C\C/C=C\C/C=C\C/C=C\C/C=C\CCCC(=O)O.NCC(=O)O [EPA-gly, glycine salt of eicosapentaenoic acid] | 14.6 A/g | 29.9 meq O2/Kg | 74.4 | <0.5 A/g | 1.19 meq O2/Kg | 2.38 | 14.6 A/g | 29.9 meqO2/kg
2 | CC/C=C\C/C=C\C/C=C\C/C=C\C/C=C\C/C=C\CCC(=O)O.NCC(=O)O [DHA-gly, glycine salt of docosahexaenoic acid] | >100 A/g | 9.71 meq O2/Kg | – | 7.4 A/g | 1.92 meq O2/Kg | 11.24 | – | 9.71 meqO2/kg
